For orientation: IC50 means the concentration needed to halve the response being measured.

The first assay relates to HIV-1 (H9IIIB strain). Put plainly: Antiviral Assays in Cell Culture (Spread), acute infection assay. Type of assay: cell-based. The following applies: Human immunodeficiency virus 1, T-lymphoid, read-out: Viking 50% (nM). The text has this: Antiviral Assays in Cell Culture (“Spread”)
Acute Infection Assay (“Spread”) data were generated using HIV-1 (H9IIIB strain) infection of MT-4 human T-lymphoid cells in 10% FBS, and according to the methods disclosed by J. P. Vacca et al, “L-735,524: An orally bioavailable human immunodeficiency virus type 1 protease inhibitor,” Proc. Natl. Acad. Sci. USA, Vol. 91, pp. 4096-4100 (April 1994).
Turning to `Cc1cc2nc([C@@H]3CO[C@H](CCc4c(F)cncc4NC(=O)C[C@H](c4cccc(F)c4)c4ccc(Cl)c(F)c4)CN3)[nH]c2cc1C` [Example 67, (3R)-3-(4-chloro-3-fluorophenyl)-N-(4-{2-[(2R,5R)-5-(5,6-dimethyl-1H-benzimidazol-2-yl)morpholin-2-yl]ethyl}-5-fluoropyridin-3-yl)-3-(3-fluorophenyl)propanamide], the EC50 came out at 23 nM. Same read-out and setting: in the case of `Cc1ccc2nc([C@@H]3CO[C@H](CCc4c(F)cncc4NC(=O)C[C@@H](c4ccc(F)cc4)c4cc(F)cc(F)c4)CN3)[nH]c2c1` [Example 66, (3S)-3-(3,5-difluorophenyl)-N-(5-fluoro-4-{2-[(2R,5R)-5-(6-methyl-1H-benzimidazol-2-yl)morpholin-2-yl]ethyl}pyridin-3-yl)-3-(4-fluorophenyl)propanamide] it was 22 nM; in that of `O=C(C[C@@H](c1ccc(F)cc1)c1cc(F)cc(F)c1)Nc1cncc(F)c1CC[C@@H]1CN[C@H](c2nc3ccc(Cl)cc3[nH]2)CO1` [Example 65, (3S)—N-(4-{2-[(2R,5R)-5-(6-chloro-1H-benzimidazol-2-yl)morpholin-2-yl]ethyl}-5-fluoropyridin-3-yl)-3-(3,5-difluorophenyl)-3-(4-fluorophenyl)propanamide], 13 nM; in that of `Cc1cc2nc([C@@H]3CO[C@H](CCc4c(F)cncc4NC(=O)C[C@H](c4ccccc4)c4ccc(F)cc4)CN3)[nH]c2cc1C` [Example 69, (3R)—N-(4-{2-[(2R,5R)-5-(5,6-dimethyl-1H-benzimidazol-2-yl)morpholin-2-yl]ethyl}-5-fluoropyridin-3-yl)-3-(4-fluorophenyl)-3-phenylpropanamide], 80 nM.

Consider `Cc1cc2nc([C@@H]3CO[C@H](CCc4c(F)cncc4NC(=O)C[C@H](c4cncc(F)c4)c4ccc(Cl)c(F)c4)CN3)[nH]c2cc1C` [Example 68, (3S)-3-(4-chloro-3-fluorophenyl)-N-(4-{2-[(2R,5R)-5-(5,6-dimethyl-1H-benzimidazol-2-yl)morpholin-2-yl]ethyl}-5-fluoropyridin-3-yl)-3-(5-fluoropyridin-3-yl)propanamide], for which the EC50 worked out at 52 nM. Same read-out and setting: to `Cc1cc2nc([C@@H]3CO[C@H](CCc4c(F)cncc4NC(=O)C[C@@H](c4ccc(F)cc4)c4cc(F)cc(F)c4)CN3)[nH]c2cc1C` [Example 64, (3S)-3-(3,5-difluorophenyl)-N-(4-{2-[(2R,5R)-5-(5,6-dimethyl-1H-benzimidazol-2-yl)morpholin-2-yl]ethyl}-5-fluoropyridin-3-yl)-3-(4-fluorophenyl)propanamide] belongs 16 nM; to `Cc1cc2nc([C@@H]3CO[C@H](CCc4c(F)cncc4NC(=O)C[C@@H](c4ccc(F)cc4)c4ccncc4F)CN3)[nH]c2cc1C` [Example 63, (3S)—N-(4-{2-[(2R,5R)-5-(5,6-dimethyl-1H-benzimidazol-2-yl)morpholin-2-yl]ethyl}-5-fluoropyridin-3-yl)-3-(4-fluorophenyl)-3-(3-fluoropyridin-4-yl)propanamide], 63 nM.

The next assay deals with T1, wildtype HIV-1 protease (Human immunodeficiency virus type 1 group M subtype B, UniProt P04585).
T1 construct: preincubated with the HIV-1 protease (wild type) enzyme in assay buffer; made in house; host or cells: Escherichia coli
Kind of assay: Assay for Inhibition of Microbial Expressed HIV Protease (Pepcleav).
Settings: not given
Type of assay: biochemical. An outline of the steps:
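E. coli-expressed wildtype protease (20 pM final) preincubated with inhibitor 30 min at room temperature in 50 mM sodium acetate pH 5.5, 100 mM NaCl, 0.1% BSA. Reaction with 400 μM peptide substrate ran 1 h at 30° C. Inhibition derived from LC-MS/MS (MRM) product peak area.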
As for `Cc1cc2nc([C@@H]3CO[C@H](CCc4c(F)cncc4NC(=O)C[C@H](c4ccccc4)c4ccc(F)cc4)CN3)[nH]c2cc1C` [Example 69, (3R)—N-(4-{2-[(2R,5R)-5-(5,6-dimethyl-1H-benzimidazol-2-yl)morpholin-2-yl]ethyl}-5-fluoropyridin-3-yl)-3-(4-fluorophenyl)-3-phenylpropanamide], the IC50 amounted to 0.01 nM. The compound `COC(=O)N[C@H](C(=O)Nc1ccccc1CC[C@@H]1CN[C@H](c2ncc(Cc3ccccc3)[nH]2)CO1)C(c1ccccc1)c1ccccc1` [Example 44, N-(2-{2-[(2R,5R)-5-(5-benzyl-1H-imidazol-2-yl)morpholin-2-yl]ethyl}phenyl)-Nα-(methoxycarbonyl)-β-phenyl-L-phenylalaninamide] gave an IC50 of 0.568 nM. For `COC(=O)N[C@H](C(=O)Nc1ccccc1CC[C@@H]1CN[C@H](c2nc3cccc(C)c3[nH]2)CO1)C(c1ccccc1)c1ccccc1` [Example 3, methyl N-[(1S)-1-benzhydryl-2-[[2-[2-[(2R,5R)-5-(7-methyl-1H-benzimidazol-2-yl)morpholin-2-yl]ethyl]phenyl]amino]-2-oxo-ethyl]carbamate], the IC50 was 0.0639 nM.

With `O=C(C[C@H](c1ccccc1)c1ccc(F)cc1)Nc1cncc(F)c1CC[C@@H]1CN[C@H](c2nc3ccccc3[nH]2)CO1` [Example 71, (3R)—N-(4-{2-[(2R,5R)-5-(1H-benzimidazol-2-yl)morpholin-2-yl]ethyl}-5-fluoropyridin-3-yl)-3-(4-fluorophenyl)-3-phenylpropanamide], the IC50 was 0.01 nM. On the same count and under the same terms, to `N[C@H](C(=O)Nc1cncc(F)c1CC[C@@H]1CN[C@H](c2nc3cc(F)c(F)cc3[nH]2)CO1)C(c1ccc(F)cc1)c1ccc(F)cc1` [Example 75, N-(4-{2-[(2R,5R)-5-(5,6-difluoro-1H-benzimidazol-2-yl)morpholin-2-yl]ethyl}-5-fluoropyridin-3-yl)-4-fluoro-β-(4-fluorophenyl)-L-phenylalaninamide] belongs 0.01 nM. Take `COC(=O)N[C@H](C(=O)Nc1ccccc1CC[C@@H]1CN[C@H](c2nc3c(F)cccc3[nH]2)CO1)C(c1ccccc1)c1ccccc1` [Example 28, N-(2-{2-[(2R,5R)-5-(4-fluoro-1H-benzimidazol-2-yl)morpholin-2-yl]ethyl}phenyl)-Na-(methoxycarbonyl)-b-phenyl-L-phenylalaninamide]: the midpoint of inhibition, the IC50, lay at 0.122 nM. `COC(=O)N[C@H](C(=O)Nc1ccccc1CC[C@@H]1CN[C@H](c2cn(C)c(=O)[nH]2)CO1)C(c1ccccc1)c1ccccc1` [Example 88] yielded an IC50 of 310 nM.

In turn, `COC(=O)N[C@H](C(=O)Nc1ccccc1CC[C@@H]1CN[C@H](c2cn(Cc3ccccc3)nn2)CO1)C(c1ccccc1)c1ccccc1` [Example 50, N-(2-{2-[(2R,5R)-5-(1-benzyl-1H-1,2,3-triazol-4-yl)morpholin-2-yl]ethyl}phenyl)-Nα-(methoxycarbonyl)-β-phenyl-L-phenylalaninamide] yielded a concentration for half-maximal inhibition (IC50) of 36.3 nM. With `COC(=O)N[C@H](C(=O)Nc1ccccc1CC[C@@H]1CN[C@H](c2nc3cc(F)c(F)cc3[nH]2)CO1)C(c1ccccc1)c1ccccc1` [Example 16, methyl N-[(1S)-1-benzhydryl-2-[[2-[2-[(2R,5R)-5-(5,6-difluoro-1H-benzimidazol-2-yl)morpholin-2-yl]ethyl]phenyl]amino]-2-oxo-ethyl]carbamate], the IC50 was 0.0246 nM.

As to `COC(=O)N[C@H](C(=O)Nc1ccccc1CC[C@@H]1CN[C@H](c2cnnn2Cc2ccccc2)CO1)C(c1ccccc1)c1ccccc1` [Example 51, N-(2-{2-[(2R,5R)-5-(1-benzyl-1H-1,2,3-triazol-5-yl)morpholin-2-yl]ethyl}phenyl)-Nα-(methoxycarbonyl)-β-phenyl-L-phenylalaninamide], the IC50 was determined as 576 nM. Same read-out and setting: to `Cc1cc2nc([C@@H]3CO[C@H](CCc4c(F)cncc4NC(=O)[C@@H](N)C(c4ccc(F)cc4)c4ccc(F)cc4)CN3)[nH]c2cc1C` [Example 92, N-(4-{2-[(2R,5R)-5-(5,6-dimethyl-1H-benzimidazol 2-yl)morpholin-2-yl]ethyl}-5-fluoropyridin-3-yl)-4-fluoro-β-(4-fluorophenyl)-L-phenylalaninamide] belongs 0.06 nM. `O=C(C[C@@H](c1ccc(F)cc1)c1ccc(F)cc1F)Nc1cccc(F)c1CC[C@@H]1CN[C@H](c2nc3ccccc3[nH]2)CO1` [Example 98, (3S)-N-(2-{2-[(2R,5R)-5-(1H-benzimidazol-2-yl)morpholin-2-yl]ethyl}-3-fluorophenyl)-3-(2,4-difluorophenyl)-3-(4-fluorophenyl) propanamide] yielded an IC50 of 0.05 nM.

For the compound `COC(=O)N[C@H](C(=O)Nc1ccccc1CC[C@@H]1CN[C@H](c2csc(Cc3ccccc3)n2)CO1)C(c1ccccc1)c1ccccc1` [Example 84], the IC50 was determined as 150 nM. Take `COC(=O)N[C@H](C(=O)Nc1ccccc1CC[C@@H]1CN[C@H](c2nnn[nH]2)CO1)C(c1ccccc1)c1ccccc1` [Example 38, Nα-(methoxycarbonyl)-β-phenyl-N-(2-{2-[(2R,5R)-5-(1H-tetrazol-5-yl)morpholin-2-yl]ethyl}phenyl)-L-phenylalaninamide]: the IC50 was found to be 2 nM.

Consider `COC(=O)N[C@H](C(=O)Nc1ccccc1CC[C@@H]1CN[C@H](c2nnc(-c3ccc(F)cc3)o2)CO1)C(c1ccccc1)c1ccccc1` [Example 79], for which it took 59 nM to reach half-maximal inhibition (IC50).

As to `COC(=O)N[C@H](C(=O)Nc1ccccc1CC[C@@H]1CN[C@H](c2ncc[nH]2)CO1)C(c1ccccc1)c1ccccc1` [Example 42], the concentration for half-maximal inhibition (IC50) stood at 2.62 nM.

Source of the values: patent publication US9737545B2 (MERCK SHARP & DOHME CORP., priority 2013, dated 2017).
